Laboratory results from PMC10629583, “Specific inhibition of an anticancer target, polo-like kinase 1, by allosterically dismantling its mechanism of substrate recognition” (Proceedings of the National Academy of Sciences of the …, 2023).
Entries after “also recorded” stand apart in the source; their conditions may differ. Read-outs that look alike come from different tables or passages of the source. Blank lines part the entries; values can stand above or below the compound they belong to. Where no end group is shown, it is not given here. [ ]: non-standard residue; d: D form. pT = C[C@@H](OP(=O)(O)O)[C@H](N)C(=O)O

Legend:
full-length Plk1 [1] = biological target: T1, full-length Plk1 (Homo sapiens, UniProt P53350); assay: ELISA-based PBD1-binding inhibition assay; conditions: total lysates from HEK293A cells expressing full-length Plk1; biotinylated PBIP1 p-T78 peptide; read-out: Anti-Plk1 (full length) ELISA (IC50) Mean ± SEM
T1 construct: expressed in transfected cells; host or cells: HEK293A cells infected with adenovirus; total lysate

L363 cells [2] = assay: MTS cell viability assay, L363 cells; assay type: cell-based; conditions: 48 h treatment, read-out: Cell efficacy (GI50) Mean ± SD
[3] = Solubility in PBS (imaging of insoluble particles, dynamic light scattering); assay type: physicochemical; conditions: PBS buffer (pH 7.4)
Experimental: All samples were analyzed after adjusting the concentration to 100 μM solution in the PBS buffer (pH 7.4) containing 1% DMSO. The measurements were carried out at 25 °C using the DynaPro NanoStar system (Wyatt Technology). The intensity of the scattered light was measured as a function of time, and the resulting data were used to calculate the size and distribution of the particles in the sample. Collected data were analyzed using the DYNAMICS software to calculate the mean size and polydispersity index of the particles in the sample. At least three repeat measurements were performed to ensure that the results were accurate and reproducible.
Fig. S1. Solubility and activity of Allopole and its related compounds. (A) Images showing insoluble
particles of 200 µM of the indicated compounds dissolved in the PBS buffer. The aggregates of […]

full-length Plk1 [4] = biological target: T1, full-length Plk1; conditions: total lysates from HEK293A cells expressing full-length Plk1; ref Park, J.E., et al. (1); read-out: Anti-Plk1 (full length) ELISA (IC50) Mean ± SEM; cited from earlier work
L363 cells [5] = system: L363 cells; parameters: method as in Park, J.E., et al. (1); conditions: MTS, 48 h treatment, ref Park, J.E., et al. (1), cited from earlier work
Plk1 PBD (PBD1) = biological target: T2, Plk1 PBD (PBD1) (Homo sapiens, UniProt P53350); assay: FP-based inhibition assay, PBD1; assay type: binding; conditions: FP, bacterially expressed purified PBD, FITC-ligand 15 nM, PBD at EC85; read-out: PBD1 IC50 ± SD
T2 construct: constructs expressing PBD1 (residues 345–603) WT (pKM7650); His; TEV site (N); made in house; host or cells: bacteria (E. coli)
Experimental: (§1) FP assays were carried out essentially as described previously ([35], [36]). […] All the samples were analyzed approximately 30 min after reaction in a 384-well format using the SpectraMax Paradigm multimode microplate detection platform (Molecular Devices). Data were analyzed after carrying out at least three independent experiments using GraphPad Prism software version 8.

Plk3 PBD (PBD3) = biological target: T3, Plk3 PBD (PBD3) (Homo sapiens, UniProt Q9H4B4); assay: FP-based inhibition assay, PBD3; assay type: binding; conditions: bacterially expressed purified PBD, FITC-ligand 15 nM, PBD at EC85
T3 construct: MBP-PBD3-His (335–646) (pKM3359) and its A612F (pKM7981); His (C); made in house; host or cells: bacteria (E. coli)
T3 sequence (Q9H4B4 335-646): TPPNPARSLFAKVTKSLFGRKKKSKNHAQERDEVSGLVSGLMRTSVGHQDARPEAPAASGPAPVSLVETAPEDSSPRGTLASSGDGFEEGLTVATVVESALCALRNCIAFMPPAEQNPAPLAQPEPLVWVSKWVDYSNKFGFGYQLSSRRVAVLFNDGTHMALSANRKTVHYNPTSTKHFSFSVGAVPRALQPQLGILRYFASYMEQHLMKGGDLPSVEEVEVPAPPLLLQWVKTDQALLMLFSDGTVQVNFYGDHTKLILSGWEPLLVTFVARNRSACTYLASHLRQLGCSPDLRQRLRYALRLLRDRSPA
Experimental: FP assays were carried out essentially as described previously ([35], [36]). FITC-conjugated ligands (15 nM) were mixed with PBDs at their EC85 concentrations. All the samples were analyzed approximately 30 min after reaction in a 384-well format using the SpectraMax Paradigm multimode microplate detection platform (Molecular Devices). Data were analyzed after carrying out at least three independent experiments using GraphPad Prism software version 8.

Plk2 PBD (PBD2) = biological target: T4, Plk2 PBD (PBD2) (Homo sapiens, UniProt Q9NYY3); assay: FP-based inhibition assay, PBD2; assay type: binding; conditions: bacterially expressed purified PBD, FITC-ligand 15 nM, PBD at EC85
T4 construct: Purification of PBD2-His (355–685) (pKM3358) and its S652F mutant (pKM7980); His (C); made in house; host or cells: bacteria (E. coli)
T4 sequence (Q9NYY3 355-685): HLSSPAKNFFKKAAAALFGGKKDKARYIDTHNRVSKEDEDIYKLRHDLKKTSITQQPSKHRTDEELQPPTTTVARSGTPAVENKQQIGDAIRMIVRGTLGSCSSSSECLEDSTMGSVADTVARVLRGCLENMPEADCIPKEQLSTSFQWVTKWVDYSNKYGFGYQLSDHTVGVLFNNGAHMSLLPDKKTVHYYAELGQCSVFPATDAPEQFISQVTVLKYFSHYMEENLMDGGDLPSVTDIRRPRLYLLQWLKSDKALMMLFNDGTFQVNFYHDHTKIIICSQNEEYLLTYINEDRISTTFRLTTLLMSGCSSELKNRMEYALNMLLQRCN
Experimental: as §1

[6] = Conversion of Allopole to Allopole-A in buffers ± GSH (LC-MS); assay type: physicochemical; conditions: 100 µM Allopole, room temperature, 1 h
Experimental: High-performance liquid chromatography (HPLC)/high-resolution mass spectrometry was used to determine the products derived from investigational drugs incubated under various conditions by measuring their exact masses. Thereafter, 20 μL aliquots of several drug preparations in either DMSO or aqueous reaction solutions were diluted 2:1 in ethanol, followed by centrifugation at 15,000 × g for 5 min. The supernatant was then injected on a Thermo Vanquish liquid chromatograph coupled to a Thermo Q Exactive Orbitrap mass spectrometer (Thermo Fisher Scientific). The conditions for the analysis are listed as follows.
The analytes were identified using the Dmass between the predicted and measured exact monoisotopic mass for the protonated molecular ions applied to the empirical formula algorithm in the Qual Browser application of the Xcalibur software (Themo Scientific). Selected ions from the base peak chromatogram were extracted for integration of peak areas. The relative amounts of each analyte to the sum total were calculated to estimate conversion of and prodrug under the specific conditions to breakdown products.
Table S2. Conversion of Allopole to Allopole-A under various buffer conditions, room
Buffers* Compounds detected
Allopole-A Allopole-A (-S) Allopole (-Cl) Allopole
* Buffer #1: 20 mM Tris (pH 8.0), 50 mM NaCl, 1 mM EDTA, 1% DMSO
Buffer #2: 1 x PBS (pH 7.4), 1 mM EDTA, 1% DMSO
Buffer #3: 20 mM HEPES (pH 7.0), 50 mM NaCl, 1 mM EDTA, 1% DMSO
Samples were prepared by incubating 100 µM of Allopole in the indicated buffer conditions in the
absence or presence of 5 mM GSH for 1 h at room temperature. Note that in the absence of GSH,

human His-Plk1 = biological target: T5, human His-Plk1 (Homo sapiens, UniProt P53350); assay: In vitro Plk1 kinase assay (casein, 32P); assay type: biochemical; conditions: casein substrate
T5 construct: His (N); purchased Sino Biological; host or cells: Sf9
Experimental: Kinase reactions were carried out in two steps. First, Sf9-purified 0.2 µg of human His-Plk1 (Sino Biological) was preincubated in a kinase cocktail [50 mM Tris-Cl (pH 7.5), 10 mM MgCl2, 2 mM dithiothreitol, 2 mM EGTA, and 27 mM p-nitrophenylphosphate] in the presence of either Allopole-A or p-13mer PBIP peptide for 20 min at 25 °C. The samples were then added with 1 µg of dephosphorylated casein (Sigma) and 1.25 µM of ATP (1.25 µCi of [γ^32P] ATP, 1Ci = 37 GBq) and reacted for additional 30 min at 30 °C. The reactions were terminated by the addition of 5× Laemmli SDS sample buffer, separated by 10% SDS-PAGE, and analyzed by autoradiography. To quantify the γ^32P signals, appropriate bands were excised from dried SDS-PAGE gels and analyzed by a liquid scintillation counter (Beckman model LS 6500).

[7] = Buffer #1 (20 mM Tris pH 8.0), no GSH
[8] = Buffer #2 (1 x PBS pH 7.4), no GSH
[9] = Buffer #3 (20 mM HEPES pH 7.0), no GSH

T1 sequence (P53350 whole entry): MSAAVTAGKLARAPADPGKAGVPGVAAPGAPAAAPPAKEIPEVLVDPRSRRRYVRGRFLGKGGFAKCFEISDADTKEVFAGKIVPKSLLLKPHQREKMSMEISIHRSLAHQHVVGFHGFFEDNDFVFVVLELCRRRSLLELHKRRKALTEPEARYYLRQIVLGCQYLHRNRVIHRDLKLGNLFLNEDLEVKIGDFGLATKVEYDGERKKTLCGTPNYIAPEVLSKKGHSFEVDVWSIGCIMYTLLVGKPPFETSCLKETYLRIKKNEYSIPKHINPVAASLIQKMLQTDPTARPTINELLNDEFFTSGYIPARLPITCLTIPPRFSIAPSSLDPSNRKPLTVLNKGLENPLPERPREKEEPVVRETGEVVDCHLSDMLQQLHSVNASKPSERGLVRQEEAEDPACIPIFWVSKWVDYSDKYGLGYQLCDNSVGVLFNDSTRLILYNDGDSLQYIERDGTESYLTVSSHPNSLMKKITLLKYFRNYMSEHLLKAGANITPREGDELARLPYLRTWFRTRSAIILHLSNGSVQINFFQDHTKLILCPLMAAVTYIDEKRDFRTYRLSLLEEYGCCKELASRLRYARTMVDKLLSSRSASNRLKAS
T2 sequence (P53350 345-603): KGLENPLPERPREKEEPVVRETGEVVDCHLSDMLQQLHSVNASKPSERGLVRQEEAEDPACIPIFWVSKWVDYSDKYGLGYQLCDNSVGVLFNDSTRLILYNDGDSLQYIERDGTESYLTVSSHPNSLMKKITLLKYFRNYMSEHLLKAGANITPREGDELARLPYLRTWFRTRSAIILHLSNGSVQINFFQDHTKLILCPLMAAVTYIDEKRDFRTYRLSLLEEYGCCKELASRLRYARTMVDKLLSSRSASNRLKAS
T5 sequence (P53350 whole entry): as the sequence (P53350 whole entry) above

Compound: CCCn1c(=O)c2oc3ccccc3c2n2c(Sc3c([N+](=O)[O-])ncn3C)nnc12 [compound 8]
IC50 (full-length Plk1 [1]): > 50 µM | GI50 (L363 cells [2]): 8.31 ± 0.56 µM

Compound: CCCn1c(=O)c2sc(C)cc2n2c(Sc3c([N+](=O)[O-])ncn3C)nnc12 [compound 4]
Solubility (in words) [3]: lower-than-acceptable solubility; also recorded: low solubility | IC50 (full-length Plk1 [4]): > 50 µM | GI50 (L363 cells [5]; read-out: Cell efficacy (GI50) Mean ± SD): 4.88 ± 0.1 µM

Compound: CCCn1c(=O)c2sc(C)cc2n2c(=S)[nH]nc12 [compound 3]
Solubility (in words) [3]: lower-than-acceptable solubility | IC50 (Plk1 PBD (PBD1)): 0.0102 µM | PBD3 IC50 ± SD (Plk3 PBD (PBD3)): N. S. | IC50 (full-length Plk1 [4]): 2.15 µM | Cell efficacy (GI50) Mean ± SD (L363 cells [5]): failed to induce any significant antiproliferation effect; also recorded: N. S | PBD2 IC50 ± SD (Plk2 PBD (PBD2)): N. S.

Compound: CCCn1c(=O)c2oc3cccc(F)c3c2n2c(Sc3c([N+](=O)[O-])ncn3C)nnc12 [compound 10]
IC50 (full-length Plk1 [1]): > 50 µM | GI50 (L363 cells [2]): 7.53 ± 0.43 µM

Compound: Cn1cnc([N+](=O)[O-])c1Sc1nnc2n(CC3CC3)c(=O)c3sccc3n12 [Allopole (-Cl)]
Compounds detected [6, 7]: 0.0 µmol/L | Compounds detected, % of total [6, 7]: 0.0% | Compounds detected, pk area [6, 7]: 4.85E+04 | Compounds detected ([6]; Buffer #1 + 5 mM GSH): 0.5 µmol/L | Compounds detected, % of total ([6]; Buffer #1 + 5 mM GSH): 0.5% | Compounds detected, pk area ([6]; Buffer #1 + 5 mM GSH): 6.89E+06 | Compounds detected [6, 8]: 0.0 µmol/L | Compounds detected, % of total [6, 8]: 0.0% | Compounds detected, pk area [6, 8]: 2.42E+04 | Compounds detected ([6]; Buffer #2 + 5 mM GSH): 0.3 µmol/L | Compounds detected, % of total ([6]; Buffer #2 + 5 mM GSH): 0.3% | Compounds detected, pk area ([6]; Buffer #2 + 5 mM GSH): 2.57E+06 | Compounds detected [6, 9]: 0.0 µmol/L | Compounds detected, % of total [6, 9]: 0.0% | Compounds detected, pk area [6, 9]: 0.00E+00 | Compounds detected ([6]; Buffer #3 + 5 mM GSH): 0.4 µmol/L | Compounds detected, % of total ([6]; Buffer #3 + 5 mM GSH): 0.4% | Compounds detected, pk area ([6]; Buffer #3 + 5 mM GSH): 1.11E+06

Further lines, with some results ahead:

IC50 (full-length Plk1 [1]): > 50 µM
Compound: CCCn1c(=O)c2sc(Cl)cc2n2c(Sc3c([N+](=O)[O-])ncn3C)nnc12 [compound 14]
GI50 (L363 cells [2]): 6.04 ± 0.17 µM

IC50 (full-length Plk1 [1]): > 50 µM | Solubility (in words) [3]: moderately; also recorded: moderate
Compound: CCCn1c(=O)c2sccc2n2c(Sc3c([N+](=O)[O-])ncn3C)nnc12 [compound 12]
GI50 (L363 cells [2]): 8.4 ± 0.74 µM

IC50 (full-length Plk1 [1]): > 50 µM
Compound: CCCn1c(=O)c2sc3ccccc3c2n2c(Sc3c([N+](=O)[O-])ncn3C)nnc12 [compound 18]
GI50 (L363 cells [2]): 7.05 ± 0.27 µM

IC50 (full-length Plk1 [1]): > 50 µM | Solubility (in words) [3]: moderately; also recorded: moderate
Compound: CCCn1c(=O)c2sc(C(C)(C)C)cc2n2c(Sc3c([N+](=O)[O-])ncn3C)nnc12 [compound 16]
GI50 (L363 cells [2]): 4.19 ± 0.15 µM

Effect on His-Plk1 kinase activity in vitro (in words) (human His-Plk1): increased it
Compound: CETFDPPLHSpTAI (CETFDPPLHS[pT]AI) [p-13mer, phospho-13mer ligand derived from the PBIP1 p-T78 motif, reference compound]
